Reference: patent US20250326752A1, “PIPERIDINYL-METHYL-PURINE AMINE SALTS, CRYSTALLINE FORMS, AND THEIR USE IN TREATING MEDICAL DISEASES AND CONDITIONS” (K36 Therapeutics, Inc., priority 2022, published 2025)
Where a name gives a salt, the structure may show the parent alone.

Tests used:
[1] = hygroscopicity by dynamic vapor sorption; type: physicochemical; conditions: transitioned from 0% to 90% relative humidity
[2] = water solubility of the crystalline form in phosphate buffer; type: physicochemical; conditions: for solubility: pH 6.8 (phosphate buffer; 50 mM where stated)
[3] = aqueous buffer, read-out: water solubility of (S)-1-((R)-3-amino-1-(4-((6-amino-9H-purin-9-yl)methyl)-6-(2,5-difluoro-4-methoxyphenyl)pyridin-3-yl)piperidin-3-yl)-2,2-difluoroethan-1-ol
[4] = pH 7.0 (phosphate buffer), 37° C., after 30 minutes

Structure (SMILES) | increase in weight (hygroscopicity by dynamic vapor sorption) [1] | water solubility of (S)-1-((R)-3-amino-1-(4-((6-amino-9H-purin-9-yl)methyl)-6-(2,5-difluoro-4-methoxyphenyl)pyridin-3-yl)piperidin-3-yl)-2,2-difluoroethan-1-ol [2, 4] | further results
COc1cc(F)c(-c2cc(Cn3cnc4c(N)ncnc43)c(N3CCC[C@](N)([C@H](O)C(F)F)C3)cn2)cc1F.Cl [Example 1, (S)-1-((R)-3-amino-1-(4-((6-amino-9H-purin-9-yl)methyl)-6-(2,5-difluoro-4-methoxyphenyl)pyridin-3-yl)piperidin-3-yl)-2,2-difluoroethan-1-ol Hydrochloric Acid Salt] | 16% | – | solubility [2, 3]: 220 µg/mL
COc1cc(F)c(-c2cc(Cn3cnc4c(N)ncnc43)c(N3CCC[C@](N)([C@H](O)C(F)F)C3)cn2)cc1F [Example 2, (S)-1-((R)-3-amino-1-(4-((6-amino-9H-purin-9-yl)methyl)-6-(2,5-difluoro-4-methoxyphenyl)pyridin-3-yl)piperidin-3-yl)-2,2-difluoroethan-1-ol Hydrochloric Acid Salt] | 1.8% | – | solubility [2, 3]: 210 µg/mL
COc1cc(F)c(-c2cc(Cn3cnc4c(N)ncnc43)c(N3CCC[C@](N)([C@H](O)C(F)F)C3)cn2)cc1F.Cl [Example 3, (S)-1-((R)-3-amino-1-(4-((6-amino-9H-purin-9-yl)methyl)-6-(2,5-difluoro-4-methoxyphenyl)pyridin-3-yl)piperidin-3-yl)-2,2-difluoroethan-1-ol Hydrochloric Acid Salt] | – | – | solubility at 30 min ([2]; aqueous buffer, pH 7.0 (phosphate buffer), 37° C., after 30 minutes, read-out: water solubility of (S)-1-((R)-3-amino-1-(4-((6-amino-9H-purin-9-yl)methyl)-6-(2,5-difluoro-4-methoxyphenyl)pyridin-3-yl)piperidin-3-yl)-2,2-difluoroethan-1-ol): 1170 µg/mL
COc1cc(F)c(-c2cc(Cn3cnc4c(N)ncnc43)c(N3CCC[C@](N)([C@H](O)C(F)F)C3)cn2)cc1F [Example 4, (S)-1-((R)-3-amino-1-(4-((6-amino-9H-purin-9-yl)methyl)-6-(2,5-difluoro-4-methoxyphenyl)pyridin-3-yl)piperidin-3-yl)-2,2-difluoroethan-1-ol Hydrochloric Acid Salt] | – | 0.36 mg/mL | –
COc1cc(F)c(-c2cc(Cn3cnc4c(N)ncnc43)c(N3CCC[C@](N)([C@H](O)C(F)F)C3)cn2)cc1F [Example 5, (S)-1-((R)-3-amino-1-(4-((6-amino-9H-purin-9-yl)methyl)-6-(2,5-difluoro-4-methoxyphenyl)pyridin-3-yl)piperidin-3-yl)-2,2-difluoroethan-1-ol Sulfuric Acid Salt] | 6.0% | – | –
COc1cc(F)c(-c2cc(Cn3cnc4c(N)ncnc43)c(N3CCC[C@](N)([C@H](O)C(F)F)C3)cn2)cc1F [Example 6, (S)-1-((R)-3-amino-1-(4-((6-amino-9H-purin-9-yl)methyl)-6-(2,5-difluoro-4-methoxyphenyl)pyridin-3-yl)piperidin-3-yl)-2,2-difluoroethan-1-ol Sulfuric Acid Salt] | – | 0.78 mg/mL | –
COc1cc(F)c(-c2cc(Cn3cnc4c(N)ncnc43)c(N3CCC[C@](N)([C@H](O)C(F)F)C3)cn2)cc1F [Example 8, (S)-1-((R)-3-amino-1-(4-((6-amino-9H-purin-9-yl)methyl)-6-(2,5-difluoro-4-methoxyphenyl)pyridin-3-yl)piperidin-3-yl)-2,2-difluoroethan-1-ol Succinic Acid Salt] | – | 1.67 mg/mL | –
COc1cc(F)c(-c2cc(Cn3cnc4c(N)ncnc43)c(N3CCC[C@](N)([C@H](O)C(F)F)C3)cn2)cc1F [Example 10, Crystalline L-Malic Acid Salt of (S)-1-((R)-3-amino-1-(4-((6-amino-9H-purin-9-yl)methyl)-6-(2,5-difluoro-4-methoxyphenyl)pyridin-3-yl)piperidin-3-yl)-2,2-difluoroethan-1-ol] | – | 1.53 mg/mL | –
COc1cc(F)c(-c2cc(Cn3cnc4c(N)ncnc43)c(N3CCC[C@](N)([C@H](O)C(F)F)C3)cn2)cc1F [Example 11, Crystalline L-Tartaric Acid Salt of (S)-1-((R)-3-amino-1-(4-((6-amino-9H-purin-9-yl)methyl)-6-(2,5-difluoro-4-methoxyphenyl)pyridin-3-yl)piperidin-3-yl)-2,2-difluoroethan-1-ol] | – | 0.54 mg/mL | –
